Measured values reported in PubChem BioAssay AID248 (DTP/NCI, 2004).
Toxic doses and inconclusive results are not listed.

Test system: L1210 leukemia ip in BDF1 mice, survival T/C
Assay: NCI In Vivo Anticancer Drug Screen. Data for tumor model L1210 Leukemia (intraperitoneal) in B6D2F1 (BDF1) mice
Settings: endpoint: mean survival time, higher = longer survival
Procedure, shortened: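 Transplanted-tumor mice were given test agent; controls received vehicle only. Survival readings from the two groups were divided (treated over control).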

[1] = dose: 100.0 mg/kg/injection, schedule: Q04DX003 (ip), vehicle: saline with Tween-80
[2] = dose: 200.0 mg/kg/injection, schedule: Q04DX003 (ip), vehicle: saline with Tween-80
[3] = dose: 400.0 mg/kg/injection, schedule: Q04DX003 (ip), vehicle: saline with Tween-80
[4] = dose: 50.0 mg/kg/injection, schedule: Q01DX009 (ip), vehicle: saline
[5] = dose: 100.0 mg/kg/injection, schedule: Q01DX009 (ip), vehicle: saline
[6] = dose: 100.0 mg/kg/injection, schedule: Q04DX003 (ip), vehicle: saline
[7] = dose: 100.0 mg/kg/injection, schedule: Q04DX002 (ip), vehicle: saline with Tween-80
[8] = dose: 200.0 mg/kg/injection, schedule: Q04DX002 (ip), vehicle: saline with Tween-80
[9] = dose: 400.0 mg/kg/injection, schedule: Q04DX002 (ip), vehicle: saline with Tween-80
[10] = dose: 100.0 mg/kg/injection, schedule: Q01DX009 (ip), vehicle: saline with Tween-80
[11] = dose: 200.0 mg/kg/injection, schedule: Q01DX009 (ip), vehicle: saline with Tween-80
[12] = dose: 400.0 mg/kg/injection, schedule: Q01DX009 (ip), vehicle: saline with Tween-80
[13] = dose: 100.0 mg/kg/injection, schedule: Q01DX009 (ip), vehicle: Klucel (hydroxypropylcellulose) (HPC)
[14] = dose: 200.0 mg/kg/injection, schedule: Q01DX009 (ip), vehicle: Klucel (hydroxypropylcellulose) (HPC)
[15] = dose: 400.0 mg/kg/injection, schedule: Q01DX009 (ip), vehicle: Klucel (hydroxypropylcellulose) (HPC)
[16] = dose: 100.0 mg/kg/injection, schedule: Q04DX003 (ip), vehicle: Klucel (hydroxypropylcellulose) (HPC)
[17] = dose: 200.0 mg/kg/injection, schedule: Q04DX003 (ip), vehicle: Klucel (hydroxypropylcellulose) (HPC)
[18] = dose: 400.0 mg/kg/injection, schedule: Q04DX003 (ip), vehicle: Klucel (hydroxypropylcellulose) (HPC)

In the case of `CC(=O)[C@]1(O)Cc2c(O)c3c(c(O)c2[C@@H](OC2CC(N)C(O)C(C)O2)C1)C(=O)c1c(O)cccc1C3=O` (stereo partly specified), the T/C (dose: 0.05 mg/kg/injection, schedule: Q03DX003 (ip), vehicle: saline) is reported as 109 % of control, the T/C (dose: 0.1 mg/kg/injection, schedule: Q03DX003 (ip), vehicle: saline) is reported as 123 % of control and the T/C (dose: 0.2 mg/kg/injection, schedule: Q01DX001 (ip), vehicle: saline) is reported as 122 % of control. The T/C (dose: 0.4 mg/kg/injection, schedule: Q01DX009 (ip), vehicle: saline) was 154 % of control, the T/C (dose: 0.4 mg/kg/injection, schedule: Q03DX003 (ip), vehicle: saline) was 157 % of control and the T/C (dose: 0.8 mg/kg/injection, schedule: Q01DX001 (ip), vehicle: saline) was 192 % of control. For the same compound, the T/C (dose: 0.8 mg/kg/injection, schedule: Q01DX009 (ip), vehicle: saline) was 98 % of control, the T/C (dose: 0.8 mg/kg/injection, schedule: Q03DX003 (ip), vehicle: saline) was 159 % of control and the T/C (dose: 1.6 mg/kg/injection, schedule: Q01DX001 (ip), vehicle: saline) was 166 % of control.
`C/C(=N\N=C(/C)c1ccc2ccccc2c1)c1ccc2ccccc2c1` was tested, and the T/C [1] was 94 % of control and the T/C [2] was 91 % of control.
In the case of `CCCCC(=O)Nc1cccc(OC(=O)NC)c1`, the T/C [1] is reported as 92 % of control, the T/C [2] is reported as 95 % of control and the T/C [3] is reported as 87 % of control.
`O=C(CCl)C1C(O)=[N+](c2ccccc2)C2C=CC=CN12` (stereo unspecified) was tested, and the T/C (dose: 25.0 mg/kg/injection, schedule: Q01DX009 (ip), vehicle: saline) was 92 % of control, the T/C (dose: 25.0 mg/kg/injection, schedule: Q04DX003 (ip), vehicle: saline) was 92 % of control and the T/C [4] was 89 % of control. The T/C (dose: 50.0 mg/kg/injection, schedule: Q04DX003 (ip), vehicle: saline) was 102 % of control, the T/C (dose: 100.0 mg/kg/injection, schedule: Q01DX001 (ip), vehicle: saline) was 105 % of control and the T/C [5] was 87 % of control. For the same compound, the T/C [6] was 95 % of control, the T/C (dose: 150.0 mg/kg/injection, schedule: Q01DX009 (ip), vehicle: saline) was 95 % of control and the T/C (dose: 225.0 mg/kg/injection, schedule: Q01DX009 (ip), vehicle: saline) was 95 % of control. For the same compound, the T/C (dose: 335.0 mg/kg/injection, schedule: Q01DX009 (ip), vehicle: saline) was 95 % of control.
In the case of `Nc1nc(-c2ccccc2)[nH]c(=O)c1N=O`, the T/C [7] is reported as 98 % of control, the T/C [8] is reported as 87 % of control and the T/C [9] is reported as 102 % of control.
With `CCOc1ccc(Br)cc1/C=C1/NC(=O)NC1=O` the T/C [10] was 95 % of control, the T/C [7] was 102 % of control and the T/C [11] was 101 % of control. For the same compound, the T/C [8] was 97 % of control, the T/C [12] was 98 % of control and the T/C [9] was 97 % of control.
`CC(=O)Nc1cc(C(=O)O)cc(C(F)(F)F)c1` was tested, and the T/C [10] was 96 % of control, the T/C [1] was 96 % of control and the T/C [11] was 100 % of control. The T/C [2] was 102 % of control, the T/C [12] was 97 % of control and the T/C [3] was 94 % of control.
For `CCCCCCCCCCCCNc1ccc(S(=O)(=O)c2ccc(N)cc2)cc1`, the T/C [7] was 100 % of control, the T/C [8] was 97 % of control and the T/C [9] was 103 % of control.
In the case of `COc1cc(C=Nc2ccc(C(=O)O)cc2)ccc1N(CCCl)CCCl`, the T/C (dose: 6.0 mg/kg/injection, schedule: Q01DX001 (ip), vehicle: carboxymethylcellulose (CMC)) is reported as 107 % of control, the T/C (dose: 12.0 mg/kg/injection, schedule: Q01DX015 (ip), vehicle: carboxymethylcellulose (CMC)) is reported as 109 % of control and the T/C (dose: 12.5 mg/kg/injection, schedule: Q01DX001 (ip), vehicle: carboxymethylcellulose (CMC)) is reported as 112 % of control.
`CC(C(OC(=O)Nc1ccc(Cl)c(Cl)c1)c1ccc(F)cc1)C(O)(C(F)(F)F)C(F)(F)F` (stereo unspecified) was tested, and the T/C [13] was 93 % of control, the T/C [14] was 93 % of control and the T/C [15] was 91 % of control.
In the case of `COCCNP(=O)(OC(C)C)OC(C)C`, the T/C [5] is reported as 97 % of control, the T/C (dose: 200.0 mg/kg/injection, schedule: Q01DX009 (ip), vehicle: saline) is reported as 92 % of control and the T/C (dose: 400.0 mg/kg/injection, schedule: Q01DX009 (ip), vehicle: saline) is reported as 94 % of control.
With `COc1cccc(C(=O)C=C(C(F)(F)F)C(F)(F)F)c1` the T/C (dose: 25.0 mg/kg/injection, schedule: Q04DX003 (ip), vehicle: saline with Tween-80) was 95 % of control, the T/C (dose: 50.0 mg/kg/injection, schedule: Q04DX003 (ip), vehicle: saline with Tween-80) was 97 % of control and the T/C [1] was 94 % of control.
With `CC/C(C)=N\NC(N)=S` the T/C (dose: 6.25 mg/kg/injection, schedule: Q01DX009 (ip), vehicle: Klucel (hydroxypropylcellulose) (HPC)) was 91 % of control, the T/C (dose: 12.5 mg/kg/injection, schedule: Q01DX009 (ip), vehicle: Klucel (hydroxypropylcellulose) (HPC)) was 92 % of control and the T/C (dose: 12.5 mg/kg/injection, schedule: Q04DX002 (ip), vehicle: Klucel (hydroxypropylcellulose) (HPC)) was 92 % of control. The T/C (dose: 25.0 mg/kg/injection, schedule: Q04DX002 (ip), vehicle: Klucel (hydroxypropylcellulose) (HPC)) was 98 % of control.
For `Cc1cnc2c(N)nn(-c3ccccc3)c2n1`, the T/C [10] was 93 % of control, the T/C [1] was 95 % of control and the T/C [11] was 101 % of control. For the same compound, the T/C [2] was 97 % of control, the T/C [12] was 98 % of control and the T/C [3] was 94 % of control.
With `CCCCCCCCCCCCCCCSc1ccc2ccccc2c1` the T/C [16] was 92 % of control, the T/C [17] was 91 % of control and the T/C [18] was 92 % of control.
In the case of `COc1ccccc1OCCOCCN(C/C=C(\C)CCC=C(C)C)C/C=C(\C)CCC=C(C)C`, the T/C [4] is reported as 100 % of control, the T/C [5] is reported as 96 % of control and the T/C [16] is reported as 102 % of control. The T/C [17] was 98 % of control.
`O=C(O)CCC(=O)Nc1ccccc1` was tested, and the T/C [16] was 95 % of control, the T/C [17] was 97 % of control and the T/C [18] was 101 % of control.
In the case of `O=S(=O)(Nc1ccc2ccccc2c1)c1ccccc1`, the T/C (dose: 100.0 mg/kg/injection, schedule: Q01DX001 (ip), vehicle: saline with Tween-80) is reported as 103 % of control, the T/C (dose: 200.0 mg/kg/injection, schedule: Q01DX001 (ip), vehicle: saline with Tween-80) is reported as 97 % of control and the T/C (dose: 400.0 mg/kg/injection, schedule: Q01DX001 (ip), vehicle: saline with Tween-80) is reported as 97 % of control.
In the case of `N=C(N)CSSCC(=N)N`, the T/C (dose: 12.5 mg/kg/injection, schedule: Q04DX003 (ip), vehicle: carboxymethylcellulose (CMC)) is reported as 92 % of control, the T/C (dose: 25.0 mg/kg/injection, schedule: Q04DX003 (ip), vehicle: carboxymethylcellulose (CMC)) is reported as 98 % of control and the T/C (dose: 50.0 mg/kg/injection, schedule: Q04DX003 (ip), vehicle: carboxymethylcellulose (CMC)) is reported as 98 % of control.
With `N#Cc1ccc(Cc2ccc(C#N)cc2)cc1` the T/C [10] was 95 % of control, the T/C [1] was 95 % of control and the T/C [11] was 97 % of control. For the same compound, the T/C [2] was 101 % of control, the T/C [12] was 100 % of control and the T/C [3] was 106 % of control.
For `CCCC(CN)(CCN1CCOCC1)c1cccc2ccccc12` (stereo unspecified), the T/C [6] was 98 % of control and the T/C (dose: 200.0 mg/kg/injection, schedule: Q04DX003 (ip), vehicle: saline) was 95 % of control.
For `COc1ccc2c(c1)CC(CN1CCC3(CC1)C(=O)N(C)CN3c1ccccc1)O2` (stereo unspecified), the T/C (dose: 75.0 mg/kg/injection, schedule: Q04DX003 (ip), vehicle: Klucel (hydroxypropylcellulose) (HPC)) was 101 % of control, the T/C (dose: 150.0 mg/kg/injection, schedule: Q04DX003 (ip), vehicle: Klucel (hydroxypropylcellulose) (HPC)) was 107 % of control and the T/C (dose: 300.0 mg/kg/injection, schedule: Q04DX003 (ip), vehicle: Klucel (hydroxypropylcellulose) (HPC)) was 95 % of control.
With `CC(=O)CSC(=S)OC(C)C` the T/C (dose: 100.0 mg/kg/injection, schedule: Q04DX002 (ip), vehicle: saline) was 112 % of control, the T/C (dose: 200.0 mg/kg/injection, schedule: Q04DX002 (ip), vehicle: saline) was 94 % of control and the T/C (dose: 400.0 mg/kg/injection, schedule: Q04DX002 (ip), vehicle: saline) was 105 % of control.
In the case of `O=Nc1ccc(C=C2C(=O)C=CC2=O)cc1`, the T/C (dose: 75.0 mg/kg/injection, schedule: Q01DX001 (ip), vehicle: saline) is reported as 100 % of control, the T/C (dose: 150.0 mg/kg/injection, schedule: Q01DX001 (ip), vehicle: saline) is reported as 94 % of control and the T/C (dose: 300.0 mg/kg/injection, schedule: Q01DX001 (ip), vehicle: saline) is reported as 101 % of control.
`O=C1c2cc([N+](=O)[O-])ccc2-c2cc(Cl)ccc21` was tested, and the T/C [1] was 97 % of control, the T/C [2] was 97 % of control and the T/C [3] was 97 % of control.
In the case of `O=C(c1ccccc1)c1c2ccccc2c(Br)c2ccccc12`, the T/C [13] is reported as 97 % of control, the T/C [16] is reported as 100 % of control and the T/C [14] is reported as 96 % of control. The T/C [17] was 95 % of control, the T/C [15] was 91 % of control and the T/C [18] was 89 % of control.
